Results reported in patent US7501410B2, “Methods of inhibiting BTK and SYK protein kinases” (Roche Palo Alto LLC, priority 2006, dated 2009).

Key:
[1] = target: T1, Bruton's Tyrosine Kinase (Btk) (Homo sapiens, UniProt Q06187); assay: Determination of IC50 of Bruton's Tyrosine Kinase (Btk) inhibition, 33P filtration assay; assay type: biochemical; settings: His-tagged full-length Btk, 100 μM ATP
T1 construct: 5-10 nM Btk enzyme (His-tagged, full-length); His tag
Excerpt: Determination of IC50 of Bruton's Tyrosine Kinase (Btk) Inhibition
The assay is a capture of radioactive ^33P phosphorylated product through filtration. The interactions of Btk, biotinylated SH2 peptide substrate (Src homology), and ATP lead to phosphorylation of the peptide substrate. Biotinylated product is bound streptavidin sepharose beads. All bound, radiolabeled products are detected by scintillation counter.
Plates assayed are 96-well polypropylene (Greiner) and 96-well 1.2 μm hydrophilic PVDF filter plates (Millipore). Concentrations reported here are final assay concentrations: 10-100 μM compounds in DMSO (Burdick and Jackson), 5-10 nM Btk enzyme (His-tagged, full-length), 30 μM peptide substrate (Biotin-Aca-[…]-NH2), 100 μM ATP (Sigma), 8 mM imidazole (Sigma, pH 7.2), 8 mM glycerol-2-phosphate (Sigma), 200 μM EGTA (Roche Diagnostics), 1 mM MnCl2 (Sigma), 20 mM MgCl2 (Sigma), 0.1 mg/ml BSA (Sigma), 2 mM DTT (Sigma), 1 μCi ^33P ATP (Amersham), 20% streptavidin sepharose beads (Amersham), 50 mM EDTA (Gibco), 2 M NaCl (Gibco), 2 M NaCl w/1% phosphoric acid (Gibco), microscint-20 (Perkin Elmer).
IC50 determinations are calculated from 10 data points per compound utilizing data produced from a standard 96-well plate assay template. One control compound and seven unknown inhibitors were tested on each plate and each plate was run twice. Typically, compounds were diluted in half-log starting at 100 μM and ending at 3 nM. The control compound was staurosporine. Background was counted in the absence of peptide substrate. Total activity was determined in the presence of peptide substrate. The following protocol was used to determine BTK inhibition.
1) Sample preparation: The test compounds were diluted at half-log increments in assay buffer (imidazole, glycerol-2-phosphate, EGTA, MnCl2, MgCl2, BSA).
2) Bead preparation • a.) rinse beads by centrifuging at 500 g • b.) reconstitute the beads with PBS and EDTA to produce a 20% bead slurry
3) Pre-incubate reaction mix without substrate (assay buffer, DTT, ATP, ^33P ATP) and mix with substrate (assay buffer, DTT, ATP, ^33P ATP, peptide substrate) 30° C. for 15 min.
4) To start assay, pre-incubate 10 μL BTK in enzyme buffer (imidazole, glycerol-2-phosphate, BSA) and 10 μL of test compounds for 10 min at RT.
5) Add 30 μL reaction mixture without or with substrate to BTK and compounds.
6) Incubate 50 μL total assay mix for 30 min at 30° C.
7) Transfer 40 μL of assay to 150 μL bead slurry in filter plate to stop reaction.
8) Wash filter plate after 30 min, with following steps • a. 3 ×250 μL NaCl • b. 3×250 μL NaCl containing 1% phosphoric acid • c. 1×250 μL H2O
9) Dry plate for 1 h at 65° C. or overnight at RT
10) Add 50 μL microscint-20 and count ^33P cpm on scintillation counter.
Calculate percent activity from raw data in cpm percent activity=(sample−bkg)/(total activity−bkg)×100

[2] = target: T2, Spleen Tyrosine Kinase (SYK) aa 360-635 (Homo sapiens, UniProt P43405); assay: Determination of IC50 of Spleen Tyrosine Kinase (SYK) inhibition, 33P kinase assay; assay type: biochemical; settings: recombinant human SYK360-635, 20 μM ATP; read-out: IC50 (μM) SYK Assay
T2 construct: truncated construct of Spleen Tyrosine Kinase aa 360-635; made in house
Procedure: Determination of IC50 of Spleen Tyrosine Kinase (SYK) Inhibition
The SYK kinase assay is a standard kinase assay adapted to a 96 well plate format. This assay is performed in 96-well format for IC50 determination with 8 samples which represented 10 half log dilutions and a 40 μL reaction volume. The assay measures the incorporation of radiolabeled ^33P γATP into an N-terminally biotinylated peptide substrate, derived from naturally occurring phosphoacceptor consensus sequence (Biotin-11aa DY*E). Phosphorylated products were detected upon termination of reactions with EDTA and the addition of Streptavidin coated beads. • Assay plates: 96-well MultiScreen 0.65 um filter plates (Millipore Cat. No.: MADVNOB10) • Streptavidin coated beads: Streptavidin Sepharose TM, suspension 5.0 mL, in 50 mM EDTA/PBS diluted (1:100), (Amersham, Cat. No.: 17-5113-01) • Compounds: 10 mM in 100% dimethylsulfoxide (DMSO), final conc.: compound 0.003-100 uM in 10% DMSO • Enzyme: SYK RPA purified, truncated construct of Spleen Tyrosine Kinase aa 360-635, stock solution 1 mg/mL, MW: 31.2 KDa, final conc.:0.0005 μM. • Peptide 1: biotinylated peptide is derived from a naturally occurring phosphor-acceptor consensus sequence (Biotin-[…]), special order from QCB, stock solution 20 mM, final conc.: 5.0 μM. • ATP: Adenosine-5′-triphosphate 20 mM, (ROCHE Cat. No.:93202720), final concentration: 20 μM • Buffer: HEPES: 2-Hydroxyethyl piperazine-2-ethanesulfonic acid (Sigma, Cat. No.: H-3375) final concentration: 50 mM HEPES pH7.5 • BSA: Bovine Serum Albumin Fraction V, fatty acid free (Roche Diagnostics GmbH, Cat. No. 9100221) diluted to a final concentration of 0.1% • EDTA: EDTA stock solution 500 mM, (GIBCO, Cat. No.: 15575-038) final concentration: 0.1 mM • DTT: 1,4-Dithiothreitol (Roche Diagnostics GmbH, Cat. No.: 197777), final conc.: 1 mM • MgCl2×6H2O: MERCK, Cat. No.: 105833.1000, final concentration: 10 mM • Assay Dilution Buffer (ADB): 50 mM HEPES, 0.1 mM EGTA, 0.1 mM Na Vanadate, 0.1 mM β-glycerophosphate, 10 mM MgCl2, 1 mM DTT, 0,1% BSA, pH 7.5 • Bead wash buffer: 10 g/L PBS (Phosphate buffered saline) with 2M NaCl+1% phosphoric acid Experimental Method:
In 40 μL volume, 26 μL of ADB diluted, purified recombinant human SYK360-635 [0.5 nM] was mixed with 4 μL of 10× concentrations of the test compounds, [usually 100 μM-0.003 μM] in [10%] DMSO and the mixture was incubated for 10 min at RT.
The kinase reaction was initiated by the addition of 10 μL 4× substrate cocktail containing the DYE peptide substrate [0 or 5 μM], ATP [20 μM] and […] [2 μCi/rxn]. After incubation at 30° C. for 15 min, the reaction was terminated by the transfer of 25 μL of the reaction sample to a 96 well 0.65 um Millipore MADVNOB membrane/plate containing 200 μL 5 mM EDTA and 20% Streptavidine coated beads in PBS.
The unbound radionucleotides were washed under vacuum with 3×250 μL 2M NaCl; 2×250 μL 2M NaCl+1% phosphoric acid; 1×250 μL H2O. After the last wash membrane/plates were transferred to an adaptor plate, heat dried for 15 min at 60° C., and 50 μL scintillation cocktail was added to each well and 4 h later the amount of radioactivity was counted in a top counter.
The IC50 was calculated using a non-linear curve fit with XLfit software (ID Business Solution Ltd., Guilford, Surrey, UK). […] Representative results are in Table 1.

T1 sequence (Q06187 whole entry): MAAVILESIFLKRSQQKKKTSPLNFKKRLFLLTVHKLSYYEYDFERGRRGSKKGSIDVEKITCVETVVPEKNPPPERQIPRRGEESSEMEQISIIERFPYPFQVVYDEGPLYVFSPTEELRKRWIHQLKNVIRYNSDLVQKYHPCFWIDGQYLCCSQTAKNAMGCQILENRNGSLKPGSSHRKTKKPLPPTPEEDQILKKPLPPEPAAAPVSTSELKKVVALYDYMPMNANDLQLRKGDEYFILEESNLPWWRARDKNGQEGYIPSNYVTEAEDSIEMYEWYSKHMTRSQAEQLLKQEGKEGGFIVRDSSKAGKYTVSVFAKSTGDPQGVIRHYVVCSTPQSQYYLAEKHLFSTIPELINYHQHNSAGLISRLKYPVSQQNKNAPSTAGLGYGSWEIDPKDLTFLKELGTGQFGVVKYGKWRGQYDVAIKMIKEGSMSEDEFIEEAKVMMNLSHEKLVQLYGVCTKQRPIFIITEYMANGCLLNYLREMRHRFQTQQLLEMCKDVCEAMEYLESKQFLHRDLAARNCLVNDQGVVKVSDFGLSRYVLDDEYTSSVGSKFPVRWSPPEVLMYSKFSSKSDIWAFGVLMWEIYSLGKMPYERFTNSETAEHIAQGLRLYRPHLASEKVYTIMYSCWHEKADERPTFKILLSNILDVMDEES

Row | Compound | IC50 [1] [µM] | IC50 [2] [µM]
1 | Cc1cc(Nc2nn(C)c(=O)c3ccccc23)n[nH]1 [Example A-3, 2-methyl-4-(5-methyl-1H-pyrazol-3-yl-amino)-2H-phthalazin-1-one] | 70.5 | 
2 | Cc1cc(Nc2nn(CC(C)C)c(=O)c3ccccc23)n[nH]1 [Example A-4, 2-isobutyl-4-(5-methyl-1H-pyrazol-3-ylamino)-2H-phthalazin-1-one] | 11.4 | 
3 | Cc1ccc(-n2nc(Nc3cc(C)[nH]n3)c3ccccc3c2=O)cc1 [Example A-6, 4-(5-methyl-1H-pyrazol-3-ylamino)-2-p-tolyl-2H-phthalazin-1-one] | 38.2 | 
4 | Cc1cc(Nc2nn(-c3ccc(C(C)(C)C)cc3)c(=O)c3ccccc23)n[nH]1 [Example A-8, 2-(4-tert-butyl-phenyl)-4-(5-methyl-1H-pyrazol-3-ylamino)-2H-phthalazin-1-one] | 30 | 0.552
5 | Cc1ccc(-n2nc(Nc3cc[nH]n3)c3ccccc3c2=O)cc1 [Example A-10, 4-(1H-pyrazol-3-yl-amino)-2-p-tolyl-2H-phthalazin-1-one] | 16.6 | 
6 | Cc1cc(Nc2nn(Cc3cc(F)ccc3F)c(=O)c3ccccc23)n[nH]1 [Example A-13, 2-(2,5-difluoro-benzyl)-4-(5-methyl-1H-pyrazol-3-yl-amino)-2H-phthalazin-1-one] | 38.6 | 22.9
7 | Cc1cc(Nc2nn(Cc3csc(C)n3)c(=O)c3ccccc23)n[nH]1 [Example A-16, 4-(5-methyl-1H-pyrazol-3-ylamino)-2-(2-methyl-thiazol-4-ylmethyl)-2H-phthalazin-1-one] | 25.2 | 87.9
8 | Cc1cc(Nc2nn(Cc3cccnc3)c(=O)c3ccccc23)[nH]n1 [Example A-18, 4-(5-methyl-2H-pyrazol-3-ylamino)-2-pyridin-3-ylmethyl-2H-phthalazin-1-one] |  | 6.53
9 | Cc1cc(Nc2nn(Cc3cc(F)cc(F)c3)c(=O)c3ccccc23)n[nH]1 [Example A-21, 2-(3,5-difluoro-benzyl)-4-(5-methyl-1H-pyrazol-3-yl-amino)-2H-phthalazin-1-one] | 14.6 | > 10
10 | Cc1cc(Nc2nn(Cc3ccccn3)c(=O)c3ccccc23)[nH]n1 [Example A-22, 4-(5-methyl-2H-pyrazol-3-ylamino)-2-pyridin-2-ylmethyl-2H-phthalazin-1-one] |  | 78.1
11 | Cc1cc(Nc2nn(C(C)C)c(=O)c3ccccc23)n[nH]1 [Example A-23, 2-isopropyl-4-(5-methyl-1H-pyrazol-3-ylamino)-2H-phthalazin-1-one] | 50.9 | 
12 | Cc1cc(Nc2nn(-c3ccc(C(F)(F)F)cc3)c(=O)c3ccccc23)[nH]n1 [Example A-25, 4-(5-methyl-1H-pyrazol-3-ylamino)-2-(4-trifluoromethyl-phenyl)-2H-phthalazin-1-one] |  | 0.525
13 | Cc1cc(Nc2nn(Cc3ccccc3)c(=O)c3ccccc23)n[nH]1 [Example E-1, 2-Benzyl-4-(5-methyl-1H-pyrazol-3-ylamino)-2H-phthalazin-1-one] | > 100 | 
14 | COCc1ccc2c(Nc3cc(C)[nH]n3)nn(C(C)C)c(=O)c2c1 [Example K-1, 2-Isopropyl-7-methoxymethyl-4-(5-methyl-1H-pyrazol-3-ylamino)-2H-phthalazin-1-one] |  | 1.25
15 | Cc1cc(Nc2nn(C(C)C)c(=O)c3ccc(CO)cc23)n[nH]1 [Example M-10, 6-Hydroxymethyl-2-isopropyl-4-(5-methyl-1H-pyrazol-3-yl-amino)-2H-phthalazin-1-one] |  | 56.9

Continued by falling IC50 [1], values first:

Row | IC50 [1] [µM] | IC50 [2] [µM] | Compound
16 | 9.79 | 49.2 | COc1ccc(Cn2nc(Nc3cc(C)[nH]n3)c3ccccc3c2=O)cc1 [Example A-11, 2-(4-methoxy-benzyl)-4-(5-methyl-1H-pyrazol-3-ylamino)-2H-phthalazin-1-one]
17 | 8.22 | 7.68 | Cc1cc(Nc2nn(CC(F)(F)F)c(=O)c3ccccc23)n[nH]1 [Example A-5, 4-(5-methyl-1H-pyrazol-3-ylamino)-2-(2,2,2-trifluoro-ethyl)-2H-phthalazin-1-one]
18 | 6.3 |  | Cc1cc(Nc2nn(-c3ccc(F)cc3)c(=O)c3ccccc23)n[nH]1 [Example A-7, 2-(4-fluoro-phenyl)-4-(5-methyl-1H-pyrazol-3-ylamino)-2H-phthalazin-1-one]
19 | 5.87 |  | COc1ccc(-n2nc(Nc3cc(C)[nH]n3)c3ccccc3c2=O)cc1 [Example A-9, 2-(4-methoxy-phenyl)-4-(5-methyl-1H-pyrazol-3-ylamino)-2H-phthalazin-1-one]
20 | 5.03 | 1.19 | Cc1cc(Nc2nn(-c3ccc(Cl)cc3)c(=O)c3ccccc23)n[nH]1 [Example B-1, 2-(4-Chloro-phenyl)-4-(5-methyl-1H-pyrazol-3-ylamino)-2H-phthalazin-1-one]
21 | 1.75 | 24.9 | Cc1cc(Nc2nn(Cc3cccc(C(=O)O)c3)c(=O)c3ccccc23)n[nH]1 [Example A-24, 3-[4-(5-methyl-1H-pyrazol-3-ylamino)-1-oxo-1H-phthalazin-2-ylmethyl]-benzoic acid]
22 | 1.25 |  | 4-(5-Methyl-2H-pyrazole-3-ylamino)-phenyl-2H-phthalazin-1-one [Example A-1]
